Source: patent US20220401483A1, “COMBINATION OF A T CELL THERAPY AND (S)-3-[4-(4-MORPHOLIN-4-YLMETHYL-BENZYLOXY)-L-OXO-L,3-DIHYDRO-ISOINDOL-2-YL]-PIPERIDINE-2,6-DIONE” (Juno Therapeutics, Inc., priority 2019, published 2022)

Experiments:
Assay type in all cases: cell-based, human
Ikaros [1] = assay: Ikaros expression in chronically stimulated CAR T cells with concurrent treatment; details: 100 nM
Description: Anti-CD19 CAR-expressing T cells were produced substantially as described in Example 1. To subject cells to chronic stimulation conditions, the CAR+ T cells were stimulated with 30 μg/mL plate-bound anti-idiotypic (anti-ID) antibody (see e.g. WO2018/023100) for 6 days in the presence of (S)-3-[4-(4-morpholin-4-ylmethyl-benzyloxy)-1-oxo-1,3-dihydro-isoindol-2-yl]-piperidine-2,6-dione (Compound A) or a vehicle control, to induce chronic stimulation. […] Cells were assessed at various times for cytolytic function, CAR T cell number and cytokine production.
After the long-term, chronic stimulation with concurrent treatment with Compound A, CAR T cells were assessed for Ikaros expression or for CAR T function following rechallenge with CD19-expressing target cells.
Expression of Ikaros in CAR T cells that had been subjected to chronic stimulation in the presence of Compound A (1 nM, 10 nM or 100 nM) was measured by intracellular flow cytometry analysis using an antibody to Ikaros.

Ikaros [2] = assay: Intracellular Ikaros expression in stimulated anti-CD19 CAR-expressing T cells (flow cytometry MFI)
Description: (§1) T cell compositions containing anti-CD19 CAR-expressing T cells were generated from leukapheresis samples from three healthy human adult donors by a process including immunoaffinity-based selection of T cells (including CD4+ and CD8+ cells) from the samples, resulting in two compositions, enriched for CD8+ and CD4+ cells, respectively. The cells were incubated in the presence of (S)-3-[4-(4-morpholin-4-ylmethyl-benzyloxy)-1-oxo-1,3-dihydro-isoindol-2-yl]-piperidine-2,6-dione (Compound A) or 3-(5-amino-2-methyl-4-oxo-4H-quinazolin-3-yl)-piperidine-2,6-dione (Compound B), and expression of the transcription factors Ikaros and Aiolos was assessed. Cells of the enriched CD4+ and CD8+ compositions were separately activated with anti-CD3/anti-CD28 beads and subjected to lentiviral transduction with a vector encoding an anti-CD19 CAR. The anti-CD19 CAR contained an anti-CD19 scFv derived from a murine antibody (variable region derived from FMC63), an immunoglobulin-derived spacer, a transmembrane domain derived from CD28, a costimulatory region derived from 4-1BB, and a CD3-zeta intracellular signaling domain. The expression construct in the viral vector further contained sequences encoding a truncated receptor, which served as a surrogate marker for CAR expression, which was separated from the CAR sequence by a T2A ribosome skip sequence. Transduced populations then were separately incubated in the presence of stimulating reagents for cell expansion. Expanded CD8+ and CD4+ cells were formulated and cryopreserved separately and stored. The cryopreserved CD4+ and CD8+ anti-CD19 CAR-expressing cells from each donor were thawed, and combined at approximately a 1:1 CAR+CD4+:CD8+ ratio prior to use. Approximately 2.5×10^5 cells of the generated CAR+ T cell composition were stimulated overnight with 1 μg/ml of a CAR-specific anti-idiotypic antibody in the presence of 3-(5-amino-2-methyl-4-oxo-4H-quinazolin-3-yl)-piperidine-2,6-dione (Compound B) or (S)-3-[4-(4-morpholin-4-ylmethyl-benzyloxy)-1-oxo-1,3-dihydro-isoindol-2-yl]-piperidine-2,6-dione (Compound A) at concentrations ranging from 10 to 10000 nM or a vehicle control overnight at 37° C., 5% C02. Following overnight incubation, anti-CD19 CAR-expressing T cells were stained with antibodies and analyzed by flow cytometry to assess intracellular levels of Ikaros and Aiolos in CD4+ CAR+ or CD8+ CAR+ cells, as measured by median fluorescence intensity (MFI). Median fluorescence intensity (MFI) values for Ikaros and Aiolos were normalized and calculated as a percentage relative to vehicle control. […] The EC50 for reducing Aiolos and Ikaros expression was calculated as determined from the concentration of the inhibitor that reduced Aiolos or Ikaros MFI to 50% of its maximal MFI in the absence of the inhibitor.

RL tumor spheroids = assay: RL tumor spheroid model with anti-CD19 CAR T cells; details: Day 4; 1 μM Compound B, 0.01 μM or 0.1 μM Compound A
Description: Cytolytic activity was also assessed in a spheroid model. About 5,000 RL cells were plated 48 hours prior to addition of 5,000 anti-CD19 CAR T cells (1:1 E:T ratio). Anti-CD19 CAR T cells were co-cultured with RL tumor spheroids, in the presence of Compound B (1 μM) or Compound A (0.001 μM, 0.01 μM or 0.1 μM)).

Aiolos = assay: Intracellular Aiolos expression in stimulated anti-CD19 CAR-expressing T cells (flow cytometry MFI)
Description: as §1

[3] = overnight incubation, 1 μg/ml anti-idiotypic antibody, average of donors (range, 95% confidence interval)

- EC50 (Ikaros [2]; [3]): 4 nM
- EC50 (Aiolos; [3]): 2.5 nM
SMILES: O=C1CC[C@H](N2Cc3c(OCc4ccc(CN5CCOCC5)cc4)cccc3C2=O)C(=O)N1 [Compound A, (S)-3-[4-(4-morpholin-4-ylmethyl-benzyloxy)-1-oxo-1,3-dihydro-isoindol-2-yl]-piperidine-2,6-dione]
- Ikaros expression in chronically stimulated cells (Ikaros [1]): reduction of Ikaros expression was maintained
- intracellular Ikaros expression (Ikaros [2]; 10 to 10000 nM, overnight): concentration dependent decrease
- sensitivity of RL tumor spheroids to compound (RL tumor spheroids): sensitive
- intracellular Aiolos expression (Aiolos; 10 to 10000 nM, overnight): concentration dependent decrease
- potency relative to Compound B in degradation of Ikaros and Aiolos (Aiolos; CAR-expressing T cells): 10-20 fold
